Legend:
Format in all cases: cell-based, murine
[1] = system: Sod1 RNA transcripts; assay: Sod1 aberrant transcript / exon skip in Neuro-2a cells (PCR gel analysis)
Description: Neuro-2a (murine neuroblastoma cells) were cultured in DMEM (PAN-Biotech GmbH) supplemented with 10% fetal bovine serum (FBS, PAN-Biotech GmbH) and Pen/Strep (PAN-Biotech GmbH). For experiments Neuro-2a cells were harvested, resuspended at 70.000 cells/mL and seeded at a density of 42.000 cells/well or 7.000 cells/well for the 24 or 96-well plates (Greiner BioOne). Cells were incubated overnight at 37° C. Before the start of treatment 120 μL or 20 μL media was added per well resp., followed by both saponin and/or PMO from a 10× concentrated stock solution in DPBS (PAN-Biotech GmbH). […] Plates were incubated for 72 hr at 37° C. before the cells of the 24 wp were harvested for gene expression analysis and the cell viability was assessed on the 96 wp.
Total RNA from cells was isolated using TRIzol™ Reagent (Thermo Scientific) according to the manufacturer's instruction. […] The gene expression was determined on 50 ng cDNA using the SapphireAmp Fast PCR Master Mix (Takara) with specific DNA primers, listed in Table A4. The PCR product was separated on a 2% agarose gel and fragments were analysed on the ChemiDoc XRS+ (BioRad) using Image Lab software (BioRad). For quantification of the % exon skip, the signal intensity of the aberrant transcript(s) (Mm Sod1 448 bp and 378 bp was divided over the total signal intensity of the skipped fragment(s)+full length fragment (Mm Sod1 545 bp)×100. […]

[2] = system: Sod1 transcript; assay: Remaining full length Sod1 transcript in Neuro-2a cells (qRT-PCR); details: PMO without saponin component
Description: Neuro-2a cells (murine neuroblastoma cell line) were cultured in DMEM (PAN-Biotech GmbH) supplemented with 10% fetal bovine serum (FBS, PAN-Biotech GmbH) and Pen/Strep (PAN-Biotech GmbH). For experiments, Neuro-2a cells were harvested, resuspended at 60.000 cells/mL and seeded at a density of 36.000 cells/well or 6.000 cells/well for the 24 or 96-well plates (Greiner BioOne). Cells were incubated overnight at 37° C. Before the start of treatment, either 210 μL or 35 μL media was added per well resp., followed by the compounds from a 10× concentrated stock solution in DPBS (PAN-Biotech GmbH). […] Plates were incubated for 72 hr at 37° C. before the cells of the 24 wp were harvested for gene expression analysis or exon skip/aberrant transcript analysis and the cell viability was assessed on the 96 wp.
Total RNA from cells was isolated using TRIzol™ Reagent (Thermo Scientific) according to the manufacturer's instruction. […] Gene expression levels of the gene of interest (GOI) and levels of specific housekeeping genes were determined using quantitative real-time PCR assays (qRT-PCR) using iTaq™ Universal SYBR® Green Supermix (BioRad) and the LightCycler 480 II (Roche Diagnostics) with specific DNA primers, listed in Table A6. […] Results are expressed as % relative GOI expression levels after normalization to DPBS treated control cells.

[3] = system: Malat1 mRNA; assay: Malat1 mRNA knockdown in Neuro-2a cells (qRT-PCR); details: for enhancing effect on Malat1 mRNA reduction in co-administration: named molecule titrated with fixed 200 nM Malat1 ASO; for Malat1 RNA still measurable: 20.000 nM Malat1 ASO alone or co-administered with 1 μM of the named molecule; for co-administration enhancement effect on Malat1 ASO efficacy: named molecule at 1 μM with titrated Malat1 ASO
Description: Neuro-2a (murine neuroblastoma cells) were cultured in DMEM (PAN-Biotech GmbH) supplemented with 10% fetal bovine serum (FBS, PAN-Biotech GmbH) and Pen/Strep (PAN-Biotech GmbH). For experiments, Neuro-2a cells were harvested, resuspended at 60.000 cells/mL and seeded at a density of 36.000 cells/well or 6.000 cells/well for the 24- or 96-well plates (Greiner BioOne). Cells were incubated overnight at 37° C. Before the start of treatment, 210 µL or 35 μL medium was added per well, respectively, followed by the conjugates from a 10× concentrated stock solution in DPBS (PAN-Biotech GmbH). Plates were incubated for 72 hr at 37° C. before the cells of the 24-well plates were harvested for gene expression analysis and the cell viability was assessed on the 96-well plates.
(§1) Total RNA from cells was isolated using TRIzol™ Reagent (Thermo Scientific) according to the manufacturer's instruction. Conversion into cDNA was performed using iScript™ cDNA Synthesis Kit (BioRad) using standard protocols. Gene expression levels of the gene of interest (GOI) and levels of specific housekeeping genes were determined using quantitative real-time PCR assays (qRT-PCR) using iTaq™ Universal SYBR® Green Supermix (BioRad) and the Light Cycler 480 II (Roche Diagnostics) with specific DNA primers, listed in Table A3. Each analysis reaction was performed in triplicate. Analysis was done by the ΔCt method to determine GOI expression relative to 2 specific housekeeping control mRNAs. Results are expressed as % relative GOI expression levels after normalization to DPBS treated control cells.
Neuro-2a cells (murine neuroblastoma cell line) were cultured in DMEM (PAN-Biotech GmbH) supplemented with 10% fetal bovine serum (FBS, PAN-Biotech GmbH) and Pen/Strep (PAN-Biotech GmbH). For experiments, Neuro-2a cells were harvested, resuspended at 60.000 cells/mL and seeded at a density of 36.000 cells/well or 6.000 cells/well for the 24 or 96-well plates (Greiner BioOne). Cells were incubated overnight at 37° C. Before the start of treatment, either 210 μL or 35 μL media was added per well resp., followed by the compounds from a 10× concentrated stock solution in DPBS (PAN-Biotech GmbH). In the control wells, or when only one compound was applied in treatment, additional DPBS was added so that the final volume per well was 900 µL or 150 μL for the 24 or 96-well plates (wp), respectively. Plates were incubated for 72 hr at 37° C. before the cells of the 24 wp were harvested for gene expression analysis or exon skip/aberrant transcript analysis and the cell viability was assessed on the 96 wp.
as §1, with “LightCycler” for “Light Cycler”, “A6.” for “A3.”

**Q.** How did the “induction of aberrant Sod1 transcripts” value ([1]; PMO alone, up to 50 μM PMO (FIG. 4)) turn out when “SOD1 PMO: PMO targeting murine Sod1, SEQ ID: 20, GCCAGCCTAGGACCTACCTTGTGTA (all phosphorodiamidate morpholino (PMO))” was run?
**A.** did not induce any aberrant Sod1 transcripts

**Q.** What about the “activity (aberrant transcript induction, nonsense mediated mRNA decay)” value ([1]; without saponin component (FIG. 18C, 18D)) of the same compound?
**A.** did not show any activity at any of the concentrations tested

**Q.** And the “reduction of full length Sod1 transcript” value [2]?
**A.** not able to reduce transcript

**Q.** What does the source list for `CC(=O)OC1C(C)OC(OC2C(C)OC(OC(=O)[C@]34CCC(C)(C)CC3C3=CCC5[C@@]6(C)CC[C@H](OC7OC(C(=O)O)C(O)C(OC8OCC(O)C(O)C8O)C7OC7OC(CO)C(O)C(O)C7O)[C@@](C)(/C=N/NC(=O)CCCCCN7C(=O)CC(SCCO)C7=O)C6CC[C@@]5(C)[C@]3(C)C[C@H]4O)C(OC3OC(C)C(OC4OCC(O)C(OC5OC(CO)C(O)C(O)C5O)C4O)C(O)C3O)C2O)C(O)C1OC1OCC(O)C(O)C1O` (stereo partly drawn) [SO1861-AH-Block]?
**A.** enhancing effect on Malat1 mRNA reduction in co-administration [3]: efficacious; concentration above which complete loss of Malat1 mRNA expression is achieved ([3]; titrated with fixed 200 nM Malat1 ASO): above 3200 nM

**Q.** For `C[C@H]1CC[C@]2(NC1)O[C@H]1C[C@H]3[C@@H]4CC[C@H]5C[C@@H](O[C@@H]6O[C@H](CO)[C@H](O[C@@H]7O[C@H](CO)[C@@H](O)[C@H](O[C@@H]8OC[C@@H](O)[C@H](O)[C@H]8O)[C@H]7O[C@@H]7O[C@H](CO)[C@@H](O)[C@H](O)[C@H]7O)[C@H](O)[C@H]6O)CC[C@]5(C)[C@H]4CC[C@]3(C)[C@H]1[C@@H]2C` [tomatine], which “Malat1 RNA still measurable” value ([3]; 4320 min) is on record?
**A.** 10-15%

**Q.** What about the “co-administration enhancement effect on Malat1 ASO efficacy” value (shortened to “co-administration enhancement effect”) [3] of the same compound?
**A.** not observed

**Q.** And the “enhancing effect on Malat1 mRNA reduction in co-administration” value [3]?
**A.** no enhancing effect

**Q.** `C[C@@H]1CC[C@@]2(OC1)O[C@H]1[C@@H](O)[C@H]3[C@@H]4CC[C@H]5C[C@@H](O[C@@H]6O[C@H](CO)[C@H](O[C@@H]7O[C@H](CO)[C@@H](O)[C@H](O[C@@H]8OC[C@@H](O)[C@H](O)[C@H]8O)[C@H]7O[C@@H]7O[C@H](CO)[C@H](O)[C@H](O[C@@H]8O[C@H](CO)[C@@H](O)[C@H](O)[C@H]8O)[C@H]7O)[C@H](O)[C@H]6O)[C@H](O)C[C@]5(C)[C@H]4CC[C@]3(C)[C@H]1[C@@H]2C` [digitonin] was tested. Which “reduction in Malat1 mRNA” value ([3]; 10.000 nM of named molecule with 200 nM Malat1 ASO, 4320 min) did it give?
**A.** approximately 70%

**Q.** What about the “Malat1 RNA still measurable” value ([3]; 4320 min) of the same compound?
**A.** 10-15%

**Q.** What about the “co-administration enhancement effect” value [3] of the same compound?
**A.** not observed

**Q.** `CC1(C)[C@@H](O[C@H]2O[C@H](C(=O)O)[C@@H](O)[C@H](O)[C@H]2O[C@@H]2O[C@H](C(=O)O)[C@@H](O)[C@H](O)[C@H]2O)CC[C@]2(C)[C@H]3C(=O)C=C4[C@@H]5C[C@@](C)(C(=O)O)CC[C@]5(C)CC[C@@]4(C)[C@]3(C)CC[C@@H]12` [glycyrrhizin] was tested. Which “enhancing effect on Malat1 mRNA reduction in co-administration” value [3] did it give?
**A.** no enhancing effect

**Q.** Which “Malat1 RNA still measurable” value ([3]; 4320 min) does the source give for `C[C@H]1O[C@@H](O[C@H]2[C@@H](O)C[C@H](O[C@H]3[C@@H](O)C[C@H](O[C@H]4CC[C@@]5(C)[C@H](CC[C@@H]6[C@@H]5C[C@@H](O)[C@]5(C)[C@@H](C7=CC(=O)OC7)CC[C@]65O)C4)O[C@@H]3C)O[C@@H]2C)C[C@H](O)[C@@H]1O` [digoxin] here?
**A.** 10-15%

**Q.** What about the “co-administration enhancement effect” value [3] of the same compound?
**A.** not observed

**Q.** What about the “enhancing effect on Malat1 mRNA reduction in co-administration” value [3] of the same compound?
**A.** no enhancing effect

Source: patent US20260284202A1, “CONJUGATES OF SAPONIN AND ANTISENSE OLIGONUCLEOTIDES FOR USE IN THE TREATMENT OF NEURODEGENERATIVE DISEASES” (priority 2023, published 2026)
